Test system: Hurley RI 000 tumor infiltrating lymphocytes (cytotoxic T cell specific for the G9-209 epitope encoded by the human melanoma associate protein gp100)
Assay: sensitization of tumor infiltrating lymphocytes and interferon-γ release
Assay type: cell-based
Conditions: Hurley RI 000 TIL, G9-209 (gp100) specific
From the text: This invention provides novel, synthetic peptide sequences which are useful as components of melanoma vaccines and to expand immune effector cells that are specific for melanoma. […] These assay methods are known in the art and disclosed in Zugel, U. et al. (1998) J Immunol. 161:1705-1709) and Salgaller, M. L. et al. (1995) Infra. The peptide sequences of the present invention differ from the natural epitope (ITDQVPFSV) (Seq. ID No. 5) in two ways: (1) they contain mutation sin the putative HLA-A2 binding domain (amino acid residues 1, 2, and 9) conferring tighter binding to the MHC, and (2) they contain mutations in the putative T cell receptor-binding domain (amino acid residues 3-8) resulting in an apparent increased avidity for the T cell receptor. They also are novel over the synthetic peptides disclosed by Salgaller, et al. (1995) Cancer Res. 55:4972-4979.

Sequence | sensitize tumor infiltrating lymphocytes and interferon-γ release
FLDQVAFXV | shown to sensitize
FLFSWYAXV | shown to sensitize

— US20040014697A1, “Melanoma antigenic peptides” (priority 1998, published 2004)
